How the values were obtained:
Format in all cases: cell-based, Murine
[1] = target: EGFR wild type Ba/F3 cell line (Homo sapiens, UniProt P00533, cells depend on it, form not given); experiment: Ba/F3 cell proliferation MTS assay, EGFR wild type; details: 72 hours
[2] = target: EGFR InsGY Ba/F3 cell line (Homo sapiens, UniProt P00533, DELINS770-770GY, cells depend on it); experiment: Ba/F3 cell proliferation MTS assay, EGFR InsGY; details: EGFR InsGY (D770delinsGY) Ba/F3 cells, 72 hours
Experimental: (§1) Different EGFR exon 20 insertion mutations were introduced via site directed mutagenesis into full length EGFR using the Quick Change Site-Directed Mutagenesis kit (Stratagene; La Jolla, Calif.) according to the manufacturer's instructions. All constructs were confirmed by DNA sequencing. The constructs were shuttled into the retroviral vector JP1540 using the BD Creator™ System (BD Biosciences). […] Stable clones were obtained by selection in puromycin (2 μg/ml) and growth in IL-3 free media.
(§2) Murine Ba/F3 cells engineered to express mutant and wild type EGFR or HER2 protein were used to perform single drug screens. Cell viability was assessed after 72 hours of compound exposure using the colorimetric cell proliferation MTS assay kit (Promega).
(§3) The curves were fitted using a non-linear regression model with a sigmoidal dose response.

[3] = target: EGFR InsSVD Ba/F3 cell line (Homo sapiens, UniProt P00533, DUP768-770, cells depend on it); experiment: Ba/F3 cell proliferation MTS assay, EGFR InsSVD; details: EGFR InsSVD (D770_N771insSVD) Ba/F3 cells, 72 hours
EGFR InsSVD Ba/F3 cell line, sequence (P00533 with tags, fused parts or gaps DUP768-770): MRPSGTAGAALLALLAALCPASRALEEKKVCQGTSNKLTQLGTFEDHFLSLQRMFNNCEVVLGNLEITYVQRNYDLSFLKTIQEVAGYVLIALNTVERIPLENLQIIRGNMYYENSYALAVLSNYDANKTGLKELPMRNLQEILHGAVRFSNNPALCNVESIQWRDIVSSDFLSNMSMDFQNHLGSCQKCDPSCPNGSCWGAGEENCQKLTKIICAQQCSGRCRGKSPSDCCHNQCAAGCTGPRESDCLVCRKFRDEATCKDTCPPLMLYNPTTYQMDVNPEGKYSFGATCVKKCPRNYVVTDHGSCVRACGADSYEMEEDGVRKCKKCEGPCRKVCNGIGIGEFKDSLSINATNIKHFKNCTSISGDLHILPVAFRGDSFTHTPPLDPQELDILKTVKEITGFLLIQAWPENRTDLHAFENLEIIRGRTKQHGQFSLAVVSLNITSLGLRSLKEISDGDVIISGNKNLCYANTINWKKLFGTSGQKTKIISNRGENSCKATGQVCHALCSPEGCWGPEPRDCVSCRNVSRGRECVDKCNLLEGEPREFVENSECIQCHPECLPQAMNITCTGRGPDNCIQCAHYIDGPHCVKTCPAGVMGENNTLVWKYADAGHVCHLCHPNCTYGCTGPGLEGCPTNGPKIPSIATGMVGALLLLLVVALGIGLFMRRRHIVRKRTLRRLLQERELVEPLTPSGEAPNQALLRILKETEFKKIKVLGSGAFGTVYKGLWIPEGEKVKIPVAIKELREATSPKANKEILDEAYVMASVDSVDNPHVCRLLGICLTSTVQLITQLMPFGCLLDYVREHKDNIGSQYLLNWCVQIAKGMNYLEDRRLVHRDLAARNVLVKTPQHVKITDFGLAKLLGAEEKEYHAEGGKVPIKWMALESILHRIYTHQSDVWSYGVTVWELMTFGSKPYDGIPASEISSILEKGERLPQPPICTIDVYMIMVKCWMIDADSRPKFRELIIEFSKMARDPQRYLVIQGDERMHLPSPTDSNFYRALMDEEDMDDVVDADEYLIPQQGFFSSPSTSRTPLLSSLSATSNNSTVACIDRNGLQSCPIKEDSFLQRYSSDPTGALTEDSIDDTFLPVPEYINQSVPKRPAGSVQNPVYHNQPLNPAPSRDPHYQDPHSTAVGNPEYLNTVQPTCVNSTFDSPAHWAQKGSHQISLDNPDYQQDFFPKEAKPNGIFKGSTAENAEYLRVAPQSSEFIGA
Experimental: as §1, §2, §3

[4] = target: EGFR InsASV Ba/F3 cell line (Homo sapiens, UniProt P00533, DUP767-769, cells depend on it); experiment: Ba/F3 cell proliferation MTS assay, EGFR InsASV; details: EGFR InsASV (V769_D770insASV) Ba/F3 cells, 72 hours
EGFR InsASV Ba/F3 cell line, sequence (P00533 with tags, fused parts or gaps DUP767-769): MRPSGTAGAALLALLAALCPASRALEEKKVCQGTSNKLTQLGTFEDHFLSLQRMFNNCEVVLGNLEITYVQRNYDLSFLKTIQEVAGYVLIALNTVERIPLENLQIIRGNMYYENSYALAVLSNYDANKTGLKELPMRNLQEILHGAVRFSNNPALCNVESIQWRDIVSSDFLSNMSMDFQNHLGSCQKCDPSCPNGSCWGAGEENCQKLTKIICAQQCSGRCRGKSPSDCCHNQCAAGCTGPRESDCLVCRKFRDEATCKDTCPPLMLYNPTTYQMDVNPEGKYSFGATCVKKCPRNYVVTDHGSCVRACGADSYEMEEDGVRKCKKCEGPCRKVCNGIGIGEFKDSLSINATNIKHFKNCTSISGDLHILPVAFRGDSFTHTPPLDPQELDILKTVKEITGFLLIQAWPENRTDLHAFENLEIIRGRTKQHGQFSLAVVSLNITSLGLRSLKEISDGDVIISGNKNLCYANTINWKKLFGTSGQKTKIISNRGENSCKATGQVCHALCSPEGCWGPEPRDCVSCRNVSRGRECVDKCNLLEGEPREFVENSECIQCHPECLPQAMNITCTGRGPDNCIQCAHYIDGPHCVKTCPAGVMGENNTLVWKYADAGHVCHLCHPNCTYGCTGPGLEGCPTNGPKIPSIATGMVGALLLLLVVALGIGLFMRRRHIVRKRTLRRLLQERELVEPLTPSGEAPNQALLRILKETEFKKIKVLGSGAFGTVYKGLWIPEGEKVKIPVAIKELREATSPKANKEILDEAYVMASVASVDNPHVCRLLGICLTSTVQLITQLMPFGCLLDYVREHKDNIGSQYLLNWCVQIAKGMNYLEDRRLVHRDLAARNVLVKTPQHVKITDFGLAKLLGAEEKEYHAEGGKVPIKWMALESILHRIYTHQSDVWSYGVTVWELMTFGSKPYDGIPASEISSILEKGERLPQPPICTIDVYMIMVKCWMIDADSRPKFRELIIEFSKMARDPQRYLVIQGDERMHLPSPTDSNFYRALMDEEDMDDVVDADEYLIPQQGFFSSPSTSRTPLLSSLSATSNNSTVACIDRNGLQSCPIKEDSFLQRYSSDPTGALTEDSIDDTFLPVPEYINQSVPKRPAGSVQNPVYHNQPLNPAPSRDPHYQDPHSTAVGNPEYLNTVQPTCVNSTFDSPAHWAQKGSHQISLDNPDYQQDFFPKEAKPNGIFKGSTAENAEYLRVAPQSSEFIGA
Experimental: as §1, §2, §3

[5] = target: HER2 wild type Ba/F3 cell line (Homo sapiens, UniProt P04626); experiment: Ba/F3 cell proliferation MTS assay, HER2 wild type; details: HER2 wild type Ba/F3 cells, 72 hours
HER2 wild type Ba/F3 cell line, sequence (P04626 whole entry, stated change not applied): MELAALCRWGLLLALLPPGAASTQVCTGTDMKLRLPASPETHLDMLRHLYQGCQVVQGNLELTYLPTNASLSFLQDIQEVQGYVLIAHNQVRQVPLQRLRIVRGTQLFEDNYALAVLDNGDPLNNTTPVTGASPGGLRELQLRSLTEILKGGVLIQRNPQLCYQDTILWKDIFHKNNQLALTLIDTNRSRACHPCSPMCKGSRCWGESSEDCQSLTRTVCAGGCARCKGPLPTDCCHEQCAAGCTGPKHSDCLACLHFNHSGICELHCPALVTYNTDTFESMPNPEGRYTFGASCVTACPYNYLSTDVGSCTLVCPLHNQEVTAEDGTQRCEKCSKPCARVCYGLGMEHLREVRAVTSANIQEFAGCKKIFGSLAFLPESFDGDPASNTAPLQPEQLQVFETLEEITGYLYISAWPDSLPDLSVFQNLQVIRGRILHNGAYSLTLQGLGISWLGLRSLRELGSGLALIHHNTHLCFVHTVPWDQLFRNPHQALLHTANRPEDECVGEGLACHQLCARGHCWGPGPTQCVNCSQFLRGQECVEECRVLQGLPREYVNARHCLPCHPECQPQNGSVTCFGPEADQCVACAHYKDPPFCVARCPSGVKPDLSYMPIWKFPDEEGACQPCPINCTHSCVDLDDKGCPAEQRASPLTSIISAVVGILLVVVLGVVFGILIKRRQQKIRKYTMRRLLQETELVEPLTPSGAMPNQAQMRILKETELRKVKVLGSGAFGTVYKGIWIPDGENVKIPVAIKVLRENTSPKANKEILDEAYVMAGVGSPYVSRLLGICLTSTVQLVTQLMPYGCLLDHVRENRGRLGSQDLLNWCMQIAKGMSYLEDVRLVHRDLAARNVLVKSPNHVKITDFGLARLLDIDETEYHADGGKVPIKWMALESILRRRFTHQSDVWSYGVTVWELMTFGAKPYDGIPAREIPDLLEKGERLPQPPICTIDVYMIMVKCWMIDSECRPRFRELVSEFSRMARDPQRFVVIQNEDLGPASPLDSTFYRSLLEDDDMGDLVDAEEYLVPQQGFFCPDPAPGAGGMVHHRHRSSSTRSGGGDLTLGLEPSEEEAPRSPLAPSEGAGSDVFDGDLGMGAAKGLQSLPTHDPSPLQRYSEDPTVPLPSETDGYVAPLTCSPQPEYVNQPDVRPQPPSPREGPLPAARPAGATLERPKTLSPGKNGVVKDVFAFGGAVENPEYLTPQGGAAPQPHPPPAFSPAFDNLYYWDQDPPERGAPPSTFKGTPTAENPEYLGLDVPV
Experimental: as §2, §3

[6] = target: HER2 InsYVMA Ba/F3 cell line (Homo sapiens, UniProt P04626, DUP772-775, cells depend on it); experiment: Ba/F3 cell proliferation MTS assay, HER2 InsYVMA; details: 72 hours;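 note: murine Ba/F3 cells engineered to carry mutant HER2, viability read colorimetrically by MTS after 72 h of exposure, EC50 from sigmoidal non-linear regression of dose response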
Experimental: as §2, §3

EGFR wild type Ba/F3 cell line, sequence (P00533 whole entry, stated change not applied): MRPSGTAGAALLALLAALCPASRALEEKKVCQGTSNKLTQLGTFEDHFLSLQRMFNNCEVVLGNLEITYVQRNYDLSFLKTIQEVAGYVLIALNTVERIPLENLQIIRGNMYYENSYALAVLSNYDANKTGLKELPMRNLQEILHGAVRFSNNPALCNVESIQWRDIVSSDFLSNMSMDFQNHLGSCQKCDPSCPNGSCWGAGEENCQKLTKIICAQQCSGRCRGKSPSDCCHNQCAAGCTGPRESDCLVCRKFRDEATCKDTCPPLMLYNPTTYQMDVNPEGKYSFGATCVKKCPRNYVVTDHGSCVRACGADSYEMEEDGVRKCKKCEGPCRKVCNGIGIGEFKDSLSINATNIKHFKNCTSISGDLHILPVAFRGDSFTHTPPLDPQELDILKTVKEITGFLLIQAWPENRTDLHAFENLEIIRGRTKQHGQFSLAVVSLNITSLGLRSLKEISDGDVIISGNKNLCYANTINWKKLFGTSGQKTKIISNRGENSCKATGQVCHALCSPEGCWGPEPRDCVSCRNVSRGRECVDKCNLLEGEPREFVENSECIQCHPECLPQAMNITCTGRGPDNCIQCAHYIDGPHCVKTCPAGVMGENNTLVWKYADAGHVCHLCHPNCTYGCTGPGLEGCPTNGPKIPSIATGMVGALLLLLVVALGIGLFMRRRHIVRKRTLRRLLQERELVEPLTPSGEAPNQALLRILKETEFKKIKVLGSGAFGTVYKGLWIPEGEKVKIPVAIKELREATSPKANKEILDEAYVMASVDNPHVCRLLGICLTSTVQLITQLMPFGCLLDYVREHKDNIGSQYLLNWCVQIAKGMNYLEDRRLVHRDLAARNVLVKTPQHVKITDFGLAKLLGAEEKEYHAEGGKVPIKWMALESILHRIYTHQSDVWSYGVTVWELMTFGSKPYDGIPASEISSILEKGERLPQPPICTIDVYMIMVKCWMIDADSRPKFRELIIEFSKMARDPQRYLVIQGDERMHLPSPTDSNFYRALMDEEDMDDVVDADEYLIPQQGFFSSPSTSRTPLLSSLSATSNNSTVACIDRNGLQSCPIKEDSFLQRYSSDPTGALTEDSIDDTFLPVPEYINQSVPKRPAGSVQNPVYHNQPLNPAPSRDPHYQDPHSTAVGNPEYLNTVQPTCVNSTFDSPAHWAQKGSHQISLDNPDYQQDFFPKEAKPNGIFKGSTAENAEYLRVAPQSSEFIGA

Row | EC50 [1] | EC50 [2] | EC50 [3] | EC50 [4] | EC50 [5] | EC50 [6] | SMILES
1 | 100 to 500 nM | 100 to 500 nM | > 1000 nM | > 1000 nM | 100 to 500 nM | > 1000 nM | C=CC(=O)Nc1cccc(N(C(=O)OCc2ccc(Cl)cc2)c2ccnc(Nc3ccn(C)n3)n2)c1 [Compound I-8, 4-chlorobenzyl (3-acrylamidophenyl)(2-((1-methyl-1H-pyrazol-3-yl)amino)pyrimidin-4-yl)carbamate]
2 | < 100 nM | 500 to 1000 nM | 100 to 500 nM | 500 to 1000 nM | 100 to 500 nM | 500 to 1000 nM | C=CC(=O)Nc1cccc(N(C(=O)OCc2ccc(F)cn2)c2ccnc(Nc3ccn(C)n3)n2)c1 [Compound I-10, (5-fluoropyridin-2-yl)methyl (3-acrylamidophenyl)(2-((1-methyl-1H-pyrazol-3-yl)amino)pyrimidin-4-yl)carbamate]
3 | 100 to 500 nM | 500 to 1000 nM | 500 to 1000 nM | > 1000 nM | 100 to 500 nM | > 1000 nM | C=CC(=O)Nc1cccc(N(C(=O)OCc2ccc(F)nc2)c2ccnc(Nc3ccn(C)n3)n2)c1 [Compound I-12, (6-fluoropyridin-3-yl)methyl (3-acrylamidophenyl)(2-((1-methyl-1H-pyrazol-3-yl)amino)pyrimidin-4-yl)carbamate]
4 | < 100 nM | 500 to 1000 nM | 500 to 1000 nM | > 1000 nM | 100 to 500 nM | 500 to 1000 nM | C=CC(=O)Nc1cccc(N(C(=O)OCc2ccc(F)cn2)c2ccnc(Nc3cnn(C)c3)n2)c1 [Compound I-11, (5-fluoropyridin-2-yl)methyl (3-acrylamidophenyl)(2-((1-methyl-1H-pyrazol-4-yl)amino)pyrimidin-4-yl)carbamate]

— US10550112B2, “Pyrimidines as EGFR inhibitors and methods of treating disorders” (Dana-Farber Cancer Institute, Inc., priority 2015, dated 2020)
